pIC50: −log10 of the molar value.
Tested on: 857933-349-R-J2-PDC complex spheroid viability
Experiment: Anticancer human tumor 857933-349-R-J2-PDC patient-derived colon adenocarcinoma cell line growth inhibition [POLQ]
Conditions: for pIC50: curve of first compound; for viability, T/C: stronger effect = lower value
Method in brief: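 PDC + HUVEC + MSC complex spheroids; POLQ inhibitors ± partner drugs; top conc. at/near clinical Cmax, else 10 microM (SN-38 1 microM), half-log dilutions; 37 degrees C, 5% CO2.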

[1] = second compound 0.0316 µM, first compound 0.0316 µM
[2] = second compound 0.0316 µM, first compound 0.1 µM
[3] = second compound 0.0316 µM, first compound 0.316 µM
[4] = second compound 0.0316 µM, first compound 1 µM
[5] = second compound 0.0316 µM, first compound 3.16 µM
[6] = second compound 0.0316 µM, first compound 10 µM
[7] = second compound 0.1 µM, first compound 0.0316 µM
[8] = second compound 0.1 µM, first compound 0.1 µM
[9] = second compound 0.1 µM, first compound 0.316 µM
[10] = second compound 0.1 µM, first compound 1 µM
[11] = second compound 0.1 µM, first compound 3.16 µM
[12] = second compound 0.1 µM, first compound 10 µM
[13] = second compound 0.316 µM, first compound 0.0316 µM
[14] = second compound 0.316 µM, first compound 0.1 µM
[15] = second compound 0.316 µM, first compound 0.316 µM
[16] = second compound 0.316 µM, first compound 1 µM
[17] = second compound 0.316 µM, first compound 3.16 µM
[18] = second compound 0.316 µM, first compound 10 µM
[19] = second compound 1 µM, first compound 0.0316 µM
[20] = second compound 1 µM, first compound 0.1 µM
[21] = second compound 1 µM, first compound 0.316 µM
[22] = second compound 1 µM, first compound 1 µM
[23] = second compound 1 µM, first compound 3.16 µM
[24] = second compound 1 µM, first compound 10 µM
[25] = second compound 3.16 µM, first compound 0.0316 µM
[26] = second compound 3.16 µM, first compound 0.1 µM
[27] = second compound 3.16 µM, first compound 0.316 µM
[28] = second compound 3.16 µM, first compound 1 µM
[29] = second compound 3.16 µM, first compound 3.16 µM
[30] = second compound 3.16 µM, first compound 10 µM
[31] = second compound 10 µM, first compound 0.0316 µM
[32] = second compound 10 µM, first compound 0.1 µM
[33] = second compound 10 µM, first compound 0.316 µM
[34] = second compound 10 µM, first compound 1 µM
[35] = second compound 10 µM, first compound 3.16 µM
[36] = second compound 10 µM, first compound 10 µM
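Also: spheroids exposed to compounds for seven days before readout.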

CCc1cc2c(N3CCc4c(cc(Cn5ccnc5)cc4-c4cn(C)nc4C(F)(F)F)C3=O)ccnc2c(OC)n1 + Cc1cccc(N(C)C(=O)C2C(O)CCN2c2nc(C)cc(C(F)(F)F)c2C#N)c1
pIC50 (second compound 0.0316 µM): < 5.00
pIC50 (second compound 0.1 µM): < 5.00
pIC50 (second compound 0.316 µM): < 5.00
pIC50 (second compound 1 µM): < 5.00
pIC50 (second compound 3.16 µM): < 5.00
pIC50 (second compound 10 µM): < 5.00
viability, T/C [1]: 104%
viability, T/C [2]: 91%
viability, T/C [3]: 94.5%
viability, T/C [4]: 82%
viability, T/C [5]: 77.7%
viability, T/C [6]: 63.1%
viability, T/C [7]: 91.6%
viability, T/C [8]: 92.8%
viability, T/C [9]: 75.9%
viability, T/C [10]: 79.5%
viability, T/C [11]: 77%
viability, T/C [12]: 54.8%
viability, T/C [13]: 96.5%
viability, T/C [14]: 100%
viability, T/C [15]: 92.4%
viability, T/C [16]: 97.8%
viability, T/C [17]: 79.7%
viability, T/C [18]: 61.1%
viability, T/C [19]: 122%
viability, T/C [20]: 103%
viability, T/C [21]: 93.1%
viability, T/C [22]: 83.3%
viability, T/C [23]: 82.5%
viability, T/C [24]: 72.3%
viability, T/C [25]: 97.8%
viability, T/C [26]: 80.1%
viability, T/C [27]: 83%
viability, T/C [28]: 88.7%
viability, T/C [29]: 79.2%
viability, T/C [30]: 84.8%
viability, T/C [31]: 96.3%
viability, T/C [32]: 96.3%
viability, T/C [33]: 80.1%
viability, T/C [34]: 73.6%
viability, T/C [35]: 76.3%
viability, T/C [36]: 61.9%

COc1ccc([C@@H](O)c2cc(-c3ncnc4cc(N5CCOCC5)ccc34)c(F)cc2Cl)nn1 + Cc1cccc(N(C)C(=O)C2C(O)CCN2c2nc(C)cc(C(F)(F)F)c2C#N)c1
pIC50 (second compound 0.0316 µM): < 5.00
pIC50 (second compound 0.1 µM): < 5.00
pIC50 (second compound 0.316 µM): < 5.00
pIC50 (second compound 1 µM): < 5.00
pIC50 (second compound 3.16 µM): 5.07
pIC50 (second compound 10 µM): < 5.00
viability, T/C [1]: 118%
viability, T/C [2]: 90.8%
viability, T/C [3]: 88.6%
viability, T/C [4]: 73.4%
viability, T/C [5]: 71.6%
viability, T/C [6]: 64.2%
viability, T/C [7]: 91.8%
viability, T/C [8]: 114%
viability, T/C [9]: 91.1%
viability, T/C [10]: 79%
viability, T/C [11]: 72.8%
viability, T/C [12]: 57.7%
viability, T/C [13]: 110%
viability, T/C [14]: 116%
viability, T/C [15]: 83.6%
viability, T/C [16]: 88.8%
viability, T/C [17]: 93.7%
viability, T/C [18]: 62.8%
viability, T/C [19]: 91.9%
viability, T/C [20]: 97.3%
viability, T/C [21]: 119%
viability, T/C [22]: 63.8%
viability, T/C [23]: 91.6%
viability, T/C [24]: 56.8%
viability, T/C [25]: 87.1%
viability, T/C [26]: 87.4%
viability, T/C [27]: 95.5%
viability, T/C [28]: 71.5%
viability, T/C [29]: 85.6%
viability, T/C [30]: 44.4%
viability, T/C [31]: 97.9%
viability, T/C [32]: 97.5%
viability, T/C [33]: 76.3%
viability, T/C [34]: 61.6%
viability, T/C [35]: 71.9%
viability, T/C [36]: 49.2%

Cn1ncnc1[C@H]1c2n[nH]c(=O)c3cc(F)cc(c23)N[C@@H]1c1ccc(F)cc1 + Cc1cccc(N(C)C(=O)C2C(O)CCN2c2nc(C)cc(C(F)(F)F)c2C#N)c1
pIC50 (second compound 0.0316 µM): < 7.00
pIC50 (second compound 0.1 µM): < 7.00
pIC50 (second compound 0.316 µM): < 7.00
pIC50 (second compound 1 µM): < 7.00
pIC50 (second compound 3.16 µM): < 7.00
pIC50 (second compound 10 µM): < 7.00
viability, T/C (second compound 0.0316 µM, first compound 0.000316 µM): 101%
viability, T/C (second compound 0.0316 µM, first compound 0.001 µM): 115%
viability, T/C (second compound 0.0316 µM, first compound 0.00316 µM): 114%
viability, T/C (second compound 0.0316 µM, first compound 0.01 µM): 125%
viability, T/C [1]: 98.2%
viability, T/C [2]: 97.3%
viability, T/C (second compound 0.1 µM, first compound 0.000316 µM): 110%
viability, T/C (second compound 0.1 µM, first compound 0.001 µM): 116%
viability, T/C (second compound 0.1 µM, first compound 0.00316 µM): 120%
viability, T/C (second compound 0.1 µM, first compound 0.01 µM): 80%
viability, T/C [7]: 101%
viability, T/C [8]: 103%
viability, T/C (second compound 0.316 µM, first compound 0.000316 µM): 97.5%
viability, T/C (second compound 0.316 µM, first compound 0.001 µM): 102%
viability, T/C (second compound 0.316 µM, first compound 0.00316 µM): 95.8%
viability, T/C (second compound 0.316 µM, first compound 0.01 µM): 86.2%
viability, T/C [13]: 101%
viability, T/C [14]: 99.8%
viability, T/C (second compound 1 µM, first compound 0.000316 µM): 85.1%
viability, T/C (second compound 1 µM, first compound 0.001 µM): 96.5%
viability, T/C (second compound 1 µM, first compound 0.00316 µM): 80.9%
viability, T/C (second compound 1 µM, first compound 0.01 µM): 82%
viability, T/C [19]: 103%
viability, T/C [20]: 95.2%
viability, T/C (second compound 3.16 µM, first compound 0.000316 µM): 96.4%
viability, T/C (second compound 3.16 µM, first compound 0.001 µM): 116%
viability, T/C (second compound 3.16 µM, first compound 0.00316 µM): 92.7%
viability, T/C (second compound 3.16 µM, first compound 0.01 µM): 108%
viability, T/C [25]: 96.2%
viability, T/C [26]: 97.1%
viability, T/C (second compound 10 µM, first compound 0.000316 µM): 91%
viability, T/C (second compound 10 µM, first compound 0.001 µM): 115%
viability, T/C (second compound 10 µM, first compound 0.00316 µM): 108%
viability, T/C (second compound 10 µM, first compound 0.01 µM): 112%
viability, T/C [31]: 110%
viability, T/C [32]: 104%

Reference: PubChem BioAssay AID1963836 (Molecular Pharmacology Branch, DTP, NCI, 2024)
